Assay results from patent US6147077A, “2R,4S-hydroxyitraconazole isomers” (priority 1999, dated 2000).
Values after ≈ are worked out from the molar mass of the structure shown. “Also recorded” adds a separate entry of the source. Where two headings read alike, the source gives them in different places.

How the values were obtained:
Candida albicans [1] = assay: Antifungal MIC, Candida albicans; assay type: cell-based; conditions: Candida albicans
Experimental: (§1) A 10 mL tube containing 4 mL of Sabourauds dextrose broth was inoculated with 1 colony of Candida albicans picked from a plate of pure culture. The strain was ordered from the American Type Culture Collection (ATCC). The organism was grown for 4 hours at 30° C. while shaking at 150 RPM. While the organism was growing, samples of hydroxy-itraconazoles were solubilized to a concentration of 10 mg/mL in DMSO. Each sample was then diluted 1:10 to make 1 mg/mL samples or 1000 μg/mL. These samples were then diluted by serial 2-fold dilutions to produce samples now containing 1000, 500, 250, 125, 62.5, 31.25, 15.6 μg/mL. […] At 4 hours of growth time the Candida albicans was diluted to a 0.5 McFarland standard representing about 10^5 -10^6 cells/mL and 1 μL of this inoculum placed into each test well of the microtiter dish. The dish was then covered and incubated at 30° C. for 16 hours.

fungi and bacteria = conditions: cited from earlier work
Sacchromyces cerevisae = assay: Kirby-Bauer Testing, Saccharomyces cerevisiae; assay type: cell-based; conditions: Saccharomyces cerevisiae, 10 μl of 10 mg/mL per disk, 30° C., 16 hours
Experimental: The hydroxyitraconazole isomers were tested for biological activity according three different assays.
Actively growing cultures of Candida albicans, Cryptococcus neoformens and Saccharomyces cerevisiae were prepared as described above. The cultures were diluted to a 0.5 McFarland standard and swabbed onto a 150 mm Sabouraud Dextrose agar plates. Paper disks (7 mm) were placed onto the agar plates using a disk dispenser. […] The plates were then incubated at 30° C. for 16 hours. Zones of inhibition were then measured in mm.

[2] = cited from earlier work
[3] = Water solubility of hydroxyitraconazole isomers and itraconazole; assay type: physicochemical
Experimental: The isomers of cis hydroxyitraconazole were tested for water solubility against a […] standard solution of hydroxyitraconazole. […] The values for 3+4 and 11+12 are barely above the LOD, giving accuracies of ±10%. In every case, solubilities were in the 10^1 to 10^2 ng/ml range.

synthesis of ergosterol = conditions: cited from earlier work
[4] = cited from earlier work; remark: listed apart in the source
Candida albicans [5] = assay: Kirby-Bauer Testing, Candida albicans; assay type: cell-based; conditions: 10 μl of 10 mg/mL per disk, 30° C., 16 hours
Experimental: The hydroxyitraconazole isomers were tested for biological activity according three different assays. Table 2 summarizes the results of Kirby-Bauer Testing against three actively growing cultures: Candida albicans, Cryptococcus neoformens and Saccromyces cerevisiae. […] A 10 mL tube containing 4 mL of Sabourauds dextrose broth was inoculated with 1 colony of Candida albicans picked from a plate of pure culture. The strain was ordered from the American Type Culture Collection (ATCC). The organism was grown for 4 hours at 30° C. while shaking at 150 RPM. While the organism was growing, samples of hydroxy-itraconazoles were solubilized to a concentration of 10 mg/mL in DMSO. Each sample was then diluted 1:10 to make 1 mg/mL samples or 1000 μg/mL. […] A 96-well microtiter dish was set up with 98 μL of liquid growth media in each test well, along with 1 μL of hydroxy-itraconazole solution. At 4 hours of growth time the Candida albicans was diluted to a 0.5 McFarland standard representing about 10^5 -10^6 cells/mL and 1 μL of this inoculum placed into each test well of the microtiter dish. The dish was then covered and incubated at 30° C. for 16 hours. Actively growing cultures of Candida albicans, Cryptococcus neoformens and Saccharomyces cerevisiae were prepared as described above. […] Zones of inhibition were then measured in mm.

Cryptococcus neoformens = assay: Kirby-Bauer Testing, Cryptococcus neoformens; assay type: cell-based; conditions: 10 μl of 10 mg/mL per disk, 30° C., 16 hours
Experimental: The hydroxyitraconazole isomers were tested for biological activity according three different assays. Table 2 summarizes the results of Kirby-Bauer Testing against three actively growing cultures: Candida albicans, Cryptococcus neoformens and Saccromyces cerevisiae.
Actively growing cultures of Candida albicans, Cryptococcus neoformens and Saccharomyces cerevisiae were prepared as described above. The cultures were diluted to a 0.5 McFarland standard and swabbed onto a 150 mm Sabouraud Dextrose agar plates. Paper disks (7 mm) were placed onto the agar plates using a disk dispenser. Next 10 μl of 10 mg/mL solutions of each sample hydroxy-itraconazole was pipetted onto separate paper disks. The plates were then incubated at 30° C. for 16 hours. Zones of inhibition were then measured in mm.

[6] = Water solubility of hydroxyitraconazole phosphate isomers (NMG salts); assay type: physicochemical; conditions: water; Table 8
Excerpt: The water solubility of the NMG salts of the phosphate esters of isomers 1, 2 and 3+4 were investigated and compared to the corresponding hydroxyitraconazole isomers 1, 2 and 3+4. The phosphate esters were as much as 10^7 times more water soluble than the corresponding hydroxyitraconazole isomer.

A. fumigatis = assay: Antifungal MIC, A. fumigatis; assay type: cell-based; conditions: A. fumigatis (Table 3)
Experimental: [The source words this procedure for another organism and reports this organism under the same test.] as §1

cytochrome P450 3A4 [7] = target: T1, cytochrome P450 3A4 (Homo sapiens, UniProt P08684); assay: Inhibition of cytochrome P450 3A4 (testosterone 6β-hydroxylase activity)
Experimental: The IC50 values were determined by the appearance of 6β-hydroxytestosterone after incubation with testosterone. […] Of greater clinical significance is the ratio of the IC50 for 3A4 to the MIC for C. albicans 44203.

cytochrome P450 3A4 [8] = target: T1, cytochrome P450 3A4
S. cerevisae = assay: Antifungal MIC, S. cerevisae; assay type: cell-based, Saccharomyces cerevisiae; conditions: Saccharomyces cerevisiae; S. cerevisae (Table 3)
Experimental: [The source words this procedure for another organism and reports this organism under the same test.] as §1

Aspergillis = assay: Kirby-Bauer Testing, Aspergillis; assay type: cell-based; conditions: 16 h, 10 μl of 10 mg/mL per disk
Cr. neoformens = assay: Antifungal MIC, Cr. neoformens; assay type: cell-based, Cryptococcus neoformens; conditions: Cryptococcus; Cr. neoformens (Table 3)
Experimental: [The source words this procedure for another organism and reports this organism under the same test.] as §1

T1 sequence (P08684 whole entry): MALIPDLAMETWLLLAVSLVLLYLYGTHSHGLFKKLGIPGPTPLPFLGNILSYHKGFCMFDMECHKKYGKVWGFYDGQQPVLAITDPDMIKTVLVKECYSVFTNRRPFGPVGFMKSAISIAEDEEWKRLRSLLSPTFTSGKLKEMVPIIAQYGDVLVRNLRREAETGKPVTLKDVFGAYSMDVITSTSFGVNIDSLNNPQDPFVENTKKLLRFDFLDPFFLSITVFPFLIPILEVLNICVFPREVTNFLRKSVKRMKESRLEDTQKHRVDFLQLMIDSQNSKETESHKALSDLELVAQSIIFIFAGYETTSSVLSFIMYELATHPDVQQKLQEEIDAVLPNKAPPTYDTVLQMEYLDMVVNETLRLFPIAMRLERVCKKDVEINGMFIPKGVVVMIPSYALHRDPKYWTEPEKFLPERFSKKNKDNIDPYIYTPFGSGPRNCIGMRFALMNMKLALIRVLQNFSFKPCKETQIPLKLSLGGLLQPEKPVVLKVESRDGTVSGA

CCC(C)n1ncn(-c2ccc(N3CCN(c4ccc(OC[C@H]5CO[C@](Cn6cncn6)(c6ccc(Cl)cc6Cl)O5)cc4)CC3)cc2)c1=O (relative stereo) [itraconazole, 4-[4-[4-[4-[[2-(2,4-dichlorophenyl)-2-(1H-1,2,4-triazol-1-ylmethyl)-1,3-dioxolan-4-yl]methoxy]phenyl]-1-piperazinyl]phenyl]-2,4-dihydro-2-(1-methylpropyl)-3H-1,2,4-triazol-3-one]
MIC (Candida albicans [1]): 0.06 µg/mL (≈ 0.085 µM)
Effect of serum on antifungal activity (fungi and bacteria; Sabouraud broth containing 10% inactivated bovine serum): enhanced in vitro
Inhibition of growth (fungi and bacteria; Sabouraud broth, 14 days, Microsporum canis, Trichophyton mentagrophytes, Candida albicans, Aspergillus spp. and others): Complete or marked inhibition of growth
zone of inhibition at 10000 µg/mL (Sacchromyces cerevisae): 15 mm
Adverse effects ([2]; administration of itraconazole): hepatotoxicity and inhibition of drug metabolism in the liver; also recorded: Hypersensitivity reactions including urticaria and elevations in serum liver enzymes
Torsades de Pointes ([2]; racemic itraconazole concurrently with terfenadine): Torsades de Pointes, has been reported
Water solubility ([3]; LOD: 5000 μV*sec, order-of-magnitude accuracy below LOD, 3+4 and 11+12 ±10%, listed as Itraconazole): such low water solubility that it could not be determined by this method
Water solubility ([3]; LOD: 5000 μV*sec, order-of-magnitude accuracy below LOD, 3+4 and 11+12 ±10%, listed as ±Itraconazole): not detected
Effect on synthesis of ergosterol (synthesis of ergosterol): impairs the synthesis of ergosterol
Urinary excretion of metabolites ([4]; in most subjects): no metabolites are excreted in the urine
Absorption following oral administration ([4]; oral): slowly absorbed
Pharmacokinetic behavior ([4]; oral): nonlinear

C[C@@H](O)[C@H](C)n1ncn(-c2ccc(N3CCN(c4ccc(OC[C@H]5CO[C@](Cn6cncn6)(c6ccc(Cl)cc6Cl)O5)cc4)CC3)cc2)c1=O [Compound 1]
MIC (Candida albicans [1]; C. albicans strain 10231 (Table 3), read-out: Antifungal MIC): 1 µg/mL (≈ 1.39 µM)
MIC (Candida albicans [1]; C. albicans strain 28516 (Table 3), read-out: Antifungal MIC): 0.25 µg/mL (≈ 0.346 µM)
MIC (Candida albicans [1]; C. albicans strain 28815 (Table 3), read-out: Antifungal MIC): 0.125 µg/mL (≈ 0.173 µM)
MIC (Candida albicans [1]; C. albicans strain 44203 (Table 3), read-out: Antifungal MIC): 0.05 µg/mL (≈ 0.0693 µM)
MIC (Candida albicans [1]; C. albicans strain 44373 (Table 3), read-out: Antifungal MIC): 0.5 µg/mL (≈ 0.693 µM)
MIC (Candida albicans [1]; C. albicans strain 62342 (Table 3), read-out: Antifungal MIC): 0.5 µg/mL (≈ 0.693 µM)
MIC (Candida albicans [1]; Candida albicans strain 44203 (Table 4), read-out: MIC): 0.05 µg/mL (≈ 0.0693 µM)
zone of inhibition at 10000 µg/mL (Candida albicans [5]): 22 mm
zone of inhibition at 10000 µg/mL (Cryptococcus neoformens): 28 mm
solubility [6]: 0.051 µg/mL
MIC (A. fumigatis): 0.137 µg/mL (≈ 0.19 µM)
zone of inhibition at 10000 µg/mL (Sacchromyces cerevisae): 22 mm
IC50 (cytochrome P450 3A4 [7]): 2.8 µM
selectivity ratio (cytochrome P450 3A4 [7]): 56
IC50/MIC ratio in words (cytochrome P450 3A4 [7]; therapeutic index, 3A4 vs C. albicans 44203): excellent results
Inhibition of P450 3A4 in words (cytochrome P450 3A4 [8]): notably less inhibition of the P450 3A4 enzyme than the 2S,4R isomers
solubility ([3]; water, LOD: 5000 μV*sec, order-of-magnitude accuracy below LOD, 3+4 and 11+12 ±10%): 0.051 µg/mL (≈ 0.0707 µM)
Area ([3]; λmax = 260 nm, LOD 5000 μV*sec): 1499 μV*sec
MIC (S. cerevisae): 0.195 µg/mL (≈ 0.27 µM)
zone of inhibition at 10000 µg/mL (Aspergillis): 27 mm
MIC (Cr. neoformens): 0.39 µg/mL (≈ 0.54 µM)
